{"source": "patent US20060140872A1", "about": "“Novel signaling pathway for the production of inglammatory pain and neuropathy” (KOWA CO., LTD., priority 2003, published 2006)", "test_system": "allergic contact dermatitis (picryl chloride-induced dermatitis)", "test": "Mouse model of picryl chloride-induced dermatitis (auricle thickness)", "assay_type": "in vivo, mouse (female BALB/C)", "settings": "applied on left auricle 1 hour before induction; thickness 24 hours after induction; dose not given; FIG. 2", "data": [{"smiles": "COc1cccc(-c2cc(=O)c3ccccc3o2)c1N", "note": "[PD98059, 2-(2-amino-3-methoxyphenyl)-4-oxo-4H-[1]benzopyran]", "values": [{"measurement": "suppressive action for allergic contact dermatitis (difference in auricle thickness)", "result": "exhibited suppressive action for allergic contact dermatitis"}]}]}
